Laboratory results published in US10407409B2, “6-(5-hydroxy-1H-pyrazol-1-yl)nicotinamide inhibitors of PHD” (Takeda Pharmaceutical Company Limited, priority 2013, dated 2019).

How the values were obtained:
[1] = biological target: PHD2 enzyme (residues 181-417) (Homo sapiens (Human), UniProt Q9GZT9); assay: Inhibition of PHD enzyme (LC/MS peptide hydroxylation assay); type: biochemical; conditions: PHD2 (residues 181-417) 5 nM, 60 min pre-incubation; -log(IC50), IC50 molar
Outline: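 PHD2 (5 nM final) preincubated with inhibitor 60 min at RT in 50 mM HEPES, 50 mM KCl, 0.5 mM TCEP, 2 uM FeCl2, 0.1 mg/ml BSA, pH 7.3. Reaction started with biotin-peptide (1 uM), 2-oxoglutarate (2 uM), ascorbate (1 mM), quenched at 60 min; hydroxylated product by LC/MS, reported as pIC50.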

[2] = system: HIF1a protein in H9c2 rat cardiomyocytes; assay: Cell-based HIF-alpha stabilization assay (inhibition of PHD in cells); conditions: Rattus norvegicus, H9c2, 24 h, 24 hrs compound incubation, HIF1a protein by ELISA, read-out: Inhibition of PHD in cells (pEC50) (converted)
Outline: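 Rat H9c2 cardiomyocytes, cultured 24 h, were treated 24 h with an 11-point serial dilution of compound. HIF1a in whole-cell lysates was quantified by ELISA as % of the maximal desferrioxamine response. EC50 came from curve fitting; EC50pos is the concentration reaching 50% of the desferrioxamine maximum.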

Chain of PHD2 enzyme (residues 181-417) (Q9GZT9 181-417): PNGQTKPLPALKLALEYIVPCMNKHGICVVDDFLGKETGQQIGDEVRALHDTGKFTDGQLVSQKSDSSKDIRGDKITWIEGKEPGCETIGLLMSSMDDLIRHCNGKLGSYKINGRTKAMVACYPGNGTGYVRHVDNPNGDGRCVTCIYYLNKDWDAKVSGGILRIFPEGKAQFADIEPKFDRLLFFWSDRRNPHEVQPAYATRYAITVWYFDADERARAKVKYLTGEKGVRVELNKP

Row | Compound | PHD Inhibition (pIC50) [1] | EC50 [2] [nM]
1 | Cc1cc(C#N)ccc1-c1cnn(-c2ccc(C(=O)NCC3CCC3)cn2)c1O [Example 180, 6-(4-(4-cyano-2-methylphenyl)-5-hydroxy-1H-pyrazol-1-yl)-N-(cyclobutylmethyl)nicotinamide] | 8.2 | 398
2 | COC(C)CCNC(=O)c1ccc(-n2ncc(-c3ccc(C#N)cc3C)c2O)nc1 (centres unmarked) [Example 181, 6-(4-(4-cyano-2-methylphenyl)-5-hydroxy-1H-pyrazol-1-yl)-N-(3-methoxybutyl)nicotinamide] | 8.2 | 324
3 | COCC(C)CNC(=O)c1ccc(-n2ncc(-c3ccc(C#N)cc3C)c2O)nc1 (centres unmarked) [Example 182, 6-(4-(4-cyano-2-methylphenyl)-5-hydroxy-1H-pyrazol-1-yl)-N-(3-methoxy-2-methylpropyl)nicotinamide] | 8.1 | 309
4 | Cc1cc(C#N)ccc1-c1cnn(-c2ccc(C(=O)N[C@H]3CC[C@H](C)CC3)cn2)c1O [Example 183, 6-(4-(4-cyano-2-methylphenyl)-5-hydroxy-1H-pyrazol-1-yl)-N-((1r,4r)-4-methylcyclohexyl)nicotinamide] | 7.9 | 646
5 | COC1CN(C(=O)c2ccc(-n3ncc(-c4ccc(C#N)cc4C)c3O)nc2)C1 [Example 184, 4-(5-hydroxy-1-(5-(3-methoxyazetidine-1-carbonyl)pyridin-2-yl)-1H-pyrazol-4-yl)-3-methylbenzonitrile] | 8.1 | 214
6 | Cc1cc(C#N)ccc1-c1cnn(-c2ccc(C(=O)N3CC4(COC4)C3)cn2)c1O [Example 185, 4-(1-(5-(2-oxa-6-azaspiro[3.3]heptane-6-carbonyl)pyridin-2-yl)-5-hydroxy-1H-pyrazol-4-yl)-3-methylbenzonitrile] | 8 | 562
7 | Cc1cc(C#N)ccc1-c1cnn(-c2ccc(C(=O)NC3CN(C)C3)cn2)c1O [Example 186, 6-(4-(4-cyano-2-methylphenyl)-5-hydroxy-1H-pyrazol-1-yl)-N-(1-methylazetidin-3-yl)nicotinamide] | 7.8 | 295
8 | Cc1cc(C#N)ccc1-c1cnn(-c2ccc(C(=O)NC(C)(C)CN(C)C)cn2)c1O [Example 187, 6-(4-(4-cyano-2-methylphenyl)-5-hydroxy-1H-pyrazol-1-yl)-N-(1-(dimethylamino)-2-methylpropan-2-yl)nicotinamide] | 7.8 | 355
9 | N#Cc1ccc(-c2cnn(-c3ccc(C(=O)NCc4ccccc4)cn3)c2O)cc1F [Example 188, N-benzyl-6-(4-(4-cyano-3-fluorophenyl)-5-hydroxy-1H-pyrazol-1-yl)nicotinamide] | 7.3 | 5250
10 | N#Cc1ccc(-c2cnn(-c3ccc(C(=O)NCC4CCOCC4)cn3)c2O)cc1F [Example 189, 6-(4-(4-cyano-3-fluorophenyl)-5-hydroxy-1H-pyrazol-1-yl)-N-((tetrahydro-2H-pyran-4-yl)methyl)nicotinamide] | 7.49 | 4680
11 | O=C(NCC1CCOCC1)c1ccc(-n2ncc(-n3ccc(=O)cc3)c2O)nc1 [Example 190, 6-(5-hydroxy-4-(4-oxopyridin-1(4H)-yl)-1H-pyrazol-1-yl)-N-((tetrahydro-2H-pyran-4-yl)methyl)nicotinamide] | 7 | 15800
12 | O=C(NCc1ccccc1)c1ccc(-n2ncc(-n3ccc(=O)cc3)c2O)nc1 [Example 191, N-benzyl-6-(5-hydroxy-4-(4-oxopyridin-1(4H)-yl)-1H-pyrazol-1-yl)nicotinamide] | 7.19 | 6760
13 | O=C(NCC1CCOCC1)c1ccc(-n2ncc(-n3ccccc3=O)c2O)nc1 [Example 192, 6-(5-hydroxy-4-(2-oxopyridin-1(2H)-yl)-1H-pyrazol-1-yl)-N-((tetrahydro-2H-pyran-4-yl)methyl)nicotinamide] | 6.84 | 50100
14 | O=C(NCc1ccccc1)c1ccc(-n2ncc(-n3ccccc3=O)c2O)nc1 [Example 193, N-benzyl-6-(5-hydroxy-4-(2-oxopyridin-1(2H)-yl)-1H-pyrazol-1-yl)nicotinamide] | 7.57 | 2690
15 | COc1cc(C#N)ccc1-c1cnn(-c2ccc(C(=O)NCC3CCOCC3)cn2)c1O [Example 194, 6-(4-(4-cyano-2-methoxyphenyl)-5-hydroxy-1H-pyrazol-1-yl)-N-((tetrahydro-2H-pyran-4-yl)methyl)nicotinamide] | 7.3 | 513
16 | COc1cc(C#N)ccc1-c1cnn(-c2ccc(C(=O)NCc3ccccc3)cn2)c1O [Example 195, N-benzyl-6-(4-(4-cyano-2-methoxyphenyl)-5-hydroxy-1H-pyrazol-1-yl)nicotinamide] | 7.01 | 2510

Row | Compound | PHD Inhibition (pIC50) [1] | EC50 [2] [nM]
17 | N#Cc1ccc(-c2cnn(-c3ccc(C(=O)NCc4ccccc4)cn3)c2O)c(Cl)c1 [Example 196, N-benzyl-6-(4-(2-chloro-4-cyanophenyl)-5-hydroxy-1H-pyrazol-1-yl)nicotinamide] | 6.84 | 3550
18 | N#Cc1ccc(-c2cnn(-c3ccc(C(=O)NCC4CCOCC4)cn3)c2O)c(Cl)c1 [Example 197, 6-(4-(2-chloro-4-cyanophenyl)-5-hydroxy-1H-pyrazol-1-yl)-N-((tetrahydro-2H-pyran-4-yl)methyl)nicotinamide] | 6.83 | 1580
19 | CC1(NC(=O)c2ccc(-n3ncc(-c4ccc(C#N)cc4)c3O)nc2)CC1 [Example 198, 6-(4-(4-cyanophenyl)-5-hydroxy-1H-pyrazol-1-yl)-N-(1-methylcyclopropyl)nicotinamide] | 7.35 | 741
20 | COCC1(NC(=O)c2ccc(-n3ncc(-c4ccc(C#N)cc4)c3O)nc2)CCC1 [Example 199, 6-(4-(4-cyanophenyl)-5-hydroxy-1H-pyrazol-1-yl)-N-(1-(methoxymethyl)cyclobutyl)nicotinamide] | 6.89 | 2340
21 | COCC(C)(C)NC(=O)c1ccc(-n2ncc(-c3ccc(C#N)cc3)c2O)nc1 [Example 200, 6-(4-(4-cyanophenyl)-5-hydroxy-1H-pyrazol-1-yl)-N-(1-methoxy-2-methylpropan-2-yl)nicotinamide] | 7.09 | 1100
22 | COCC1(NC(=O)c2ccc(-n3ncc(-c4ccc(C#N)cc4)c3O)nc2)CC1 [Example 201, 6-(4-(4-cyanophenyl)-5-hydroxy-1H-pyrazol-1-yl)-N-(1-(methoxymethyl)cyclopropyl)nicotinamide] | 7.29 | 776
23 | CC(C)(C)NC(=O)c1ccc(-n2ncc(-c3ccc(C#N)cc3)c2O)nc1 [Example 202, N-(tert-butyl)-6-(4-(4-cyanophenyl)-5-hydroxy-1H-pyrazol-1-yl)nicotinamide] | 7.23 | 724
24 | COCCCNC(=O)c1ccc(-n2ncc(-c3ccnc(OC)c3)c2O)nc1 [Example 203, 6-(5-hydroxy-4-(2-methoxypyridin-4-yl)-1H-pyrazol-1-yl)-N-(3-methoxypropyl)nicotinamide] | 7.1 | 603
25 | COc1cc(-c2cnn(-c3ccc(C(=O)NC4CC4)cn3)c2O)ccn1 [Example 204, N-cyclopropyl-6-(5-hydroxy-4-(2-methoxypyridin-4-yl)-1H-pyrazol-1-yl)nicotinamide] | 7.08 | 468
26 | COCC1(NC(=O)c2ccc(-n3ncc(-c4ccnc(OC)c4)c3O)nc2)CC1 [Example 205, 6-(5-hydroxy-4-(2-methoxypyridin-4-yl)-1H-pyrazol-1-yl)-N-(1-(methoxymethyl)cyclopropyl)nicotinamide] | 6.89 | 631
27 | Cc1cc(C#N)ccc1-c1cnn(-c2ccc(C(=O)NCCC3CCCCO3)cn2)c1O (centres unmarked) [Example 206, 6-(4-(4-cyano-2-methylphenyl)-5-hydroxy-1H-pyrazol-1-yl)-N-(2-(tetrahydro-2H-pyran-2-yl)ethyl)nicotinamide] | 8.2 | 110
28 | COc1cc(-c2cnn(-c3ccc(C(=O)NCCC4CCCCO4)cn3)c2O)ccn1 (centres unmarked) [Example 207, 6-(5-hydroxy-4-(2-methoxypyridin-4-yl)-1H-pyrazol-1-yl)-N-(2-(tetrahydro-2H-pyran-2-yl)ethyl)nicotinamide] | 8.3 | 123
29 | COCCC1(NC(=O)c2ccc(-n3ncc(-c4ccc(C#N)cc4)c3O)nc2)CC1 [Example 208, 6-(4-(4-cyanophenyl)-5-hydroxy-1H-pyrazol-1-yl)-N-(1-(2-methoxyethyl)cyclopropyl)nicotinamide] | 7.8 | 269
30 | COCCC1(NC(=O)c2ccc(-n3ncc(-c4ccnc(OC)c4)c3O)nc2)CC1 [Example 209, 6-(5-hydroxy-4-(2-methoxypyridin-4-yl)-1H-pyrazol-1-yl)-N-(1-(2-methoxyethyl)cyclopropyl)nicotinamide] | 6.98 | 398
31 | Cn1ccc(-c2cnn(-c3ccc(C(=O)NCC4CCOCC4)cn3)c2O)cc1=O [Example 211, 6-(5-hydroxy-4-(1-methyl-2-oxo-1,2-dihydropyridin-4-yl)-1H-pyrazol-1-yl)-N-((tetrahydro-2H-pyran-4-yl)methyl)nicotinamide] | 6.47 | 50100
